The text below walks through data of US9944669B2, “Fumarate-CO-releasing molecule hybrids, their use in the treatment of inflammatory or cardiovascular diseases and their process of preparation” (UNIVERSITE PARIS EST CRETEIL VAL DE MARNE, priority 2014, dated 2018).

Assay [1] relates to BV2 cells challenged with lipopolysaccharide (LPS). In words: Nitrite production in BV2 cells challenged with LPS (Griess method). In kind it is cell-based. The procedure: […] At the end of the incubation, nitrite levels were measured using the Griess method.^12,14 Briefly, cell plates were centrifuged at 10,000×g for 5 min and the cell-free supernatant was incubated with an equal volume of Griess reagent (2 mM N-(1-naphtyl)ethylenediamide, 30 mM sulfanilamide and 140 mM o-phosphoric acid) for 10 min at room temperature. The absorbance was measured at 560 nm. Concentrations of nitrite (μM) were calculated from a standard curve of sodium nitrite.

The next assay concerns HO-1. In words: HO-1 protein expression in THP-1 cells. The class given is cell-based, Human. The procedure: THP-1 cells were exposed to different concentration of compounds A, B, and C during 6 hours.
The subject of the next assay is TNF-α. In words: TNF-α production in THP-1 cells challenged with LPS. The class given is cell-based, Human. Conditions: LPS (100 μg/ml), 5 μM compound, 24 h. The procedure: Human THP-1 cells cultured as in Example 3.3 were treated with LPS (100 μg/ml) alone or in the presence of 5 μM compound C, compound E or the comparative dimethyl fumarate (DMF) for 24 h.

Counter-ions that a name gives are not always drawn.

As to `C#CCOC(=O)/C=C/C(=O)OCC` [Compound J], the “Nitrite levels (μM) LPS + compound” value in assay [1] (5 μM compound, 24 hr incubation with 0.5 μg/ml LPS, mean ± SEM) worked out at 43.2 ± 1.0 µM. For the same molecule, the “% decrease vs. LPS (nitrite)” value in assay [1] (5 μM compound, 24 hr, LPS) is 50.1%. For the same molecule, the “concentration giving almost the same reduction of nitrite production (compound C vs compound J)” value in assay [1] (BV2, LPS 1 μg/ml 24 h) worked out at 5 µM. Moreover, the “concentration needed for the same HO-1 result, as fold of the compound C concentration (5 μM)” value with HO-1 came out at 10 fold.
`COC(=O)/C=C/C(=O)OC` [dimethyl fumarate (DMF)]: in the assay with TNF-α, the TNF-α production result was “did not have any effect”.
